Series [1] addresses recombinant CYP142A1 (Mycobacterium tuberculosis, UniProt P9WPL5). The settings on record: pH 7.4.
In series [2] the test system is CC(C)CCC[C@@H](C)[C@H]1CC[C@H]2[C@@H]3CCC4=CC(=O)CC[C@]4(C)[C@H]3CC[C@]12C. The experiment in a line: purified protein, by the assay type. The settings on record: pH 7.5.

Counter-ions that a name gives are not always drawn.

recombinant CYP142A1, sequence (P9WPL5 whole entry): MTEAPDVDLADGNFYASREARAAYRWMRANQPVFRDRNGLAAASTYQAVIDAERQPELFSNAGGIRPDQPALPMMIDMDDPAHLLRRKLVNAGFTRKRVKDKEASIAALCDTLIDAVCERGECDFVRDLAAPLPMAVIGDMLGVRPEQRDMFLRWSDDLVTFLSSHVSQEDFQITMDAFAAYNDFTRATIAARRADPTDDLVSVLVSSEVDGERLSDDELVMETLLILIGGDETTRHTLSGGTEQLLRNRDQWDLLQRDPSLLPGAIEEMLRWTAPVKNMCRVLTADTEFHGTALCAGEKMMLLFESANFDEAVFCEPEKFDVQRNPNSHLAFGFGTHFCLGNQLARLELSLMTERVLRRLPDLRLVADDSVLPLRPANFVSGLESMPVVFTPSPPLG

Turning to Cholesteryl propionate, the Kd in series [1] worked out at 45 ± 7 µM.
The same measure, in the same setting: then `CC(C)CCC[C@@H](C)[C@H]1CC[C@H]2[C@@H]3CC=C4C[C@@H](OS(=O)(=O)O)CC[C@]4(C)[C@H]3CC[C@]12C` [Cholesteryl sulfate], with 27 ± 6.9 µM.
For the molecule (Mycobacterium tuberculosis H37Rv), in series [2], the Km was 35 ± 5.4 µM and the kcat stood at 0.128 ± 0.00717 s⁻¹.

Usually Kd stands for the equilibrium constant for the complex coming apart. One may read the Km as the substrate concentration at which the rate is half of its maximum. For orientation: kcat means the maximal rate divided by the concentration of active sites.

Values taken from article PMC9425443 (RSC Advances, 2022).
